The text below walks through data of patent US20190337924A1, “SUBSTITUTED HYDANTOIN AND THIOHYDANTOIN DERIVATIVES AS ANDROGEN RECEPTOR ANTAGONISTS” (Janssen Pharmaceutica NV, priority 2016, published 2019).

In general, melting point refers to the temperature of the solid-liquid transition.

Each structure is given as a SMILES string. Structures can show the parent of a compound that is named as a salt. Where only a bound is given, the exact number is not on record here.

As to `CC1(C)C(=O)N(c2ccc(C#N)c(Cl)c2)C(=S)N1c1ccc(OC2CCNCC2)cc1` (as salt: hydrochloride) [Compound 7, 2-Chloro-4-(4,4-dimethyl-5-oxo-3-(4-(piperidin-4-yloxy)phenyl)-2-thioxoimidazolidin-1-yl)benzonitrile hydrochloride], the melting point is > 300 °C.

The molecule `CN1CCC(Oc2ccc(N3C(=S)N(c4ccc(C#N)c(Cl)c4)C(=O)C3(C)C)cc2)CC1` (as salt: hydrochloride) [Compound 8, 2-Chloro-4-(4,4-dimethyl-3-(4-((1-methylpiperidin-4-yl)oxy)phenyl)-5-oxo-2-thioxoimidazolidin-1-yl)benzonitrile hydrochloride] registered a melting point of 251.7 °C.

In the case of `CN1CCC(Oc2ccc(N3C(=S)N(c4ccc(C#N)c(Cl)c4)C(=O)C34CCC4)cn2)CC1` (as salt: hydrochloride) [Compound 24, 2-Chloro-4-(5-(6-((1-methylpiperidin-4-yl)oxy)pyridin-3-yl)-8-oxo-6-thioxo-5,7-diazaspiro[3.4]octan-7-yl)benzonitrile hydrochloride], the melting point worked out at 239 °C.

As for `N#Cc1ccc(N2C(=O)C3(CCC3)N(c3ccc(OC4CCNCC4)nc3)C2=S)cc1Cl` (as salt: hydrochloride) [Compound 23, 2-Chloro-4-(8-oxo-5-(6-(piperidin-4-yloxy)pyridin-3-yl)-6-thioxo-5,7-diazaspiro[3.4]octan-7-yl)benzonitrile hydrochloride], the melting point was 260.1 °C.

As to `CN1CCC(Oc2ccc(N3C(=S)N(c4ccc(C#N)c(Cl)c4)C(=O)C3(C)C)cn2)CC1` (as salt: hydrochloride) [Compound 10, 2-Chloro-4-(4,4-dimethyl-3-(6-((1-methylpiperidin-4-yl)oxy)pyridin-3-yl)-5-oxo-2-thioxoimidazolidin-1-yl)benzonitrile hydrochloride], the melting point stood at 220.9 °C.

`CC1(C)C(=O)N(c2ccc(C#N)c(Cl)c2)C(=S)N1c1ccc(OC2CCNCC2)nc1` (as salt: hydrochloride) [Compound 9, 2-Chloro-4-(4,4-dimethyl-5-oxo-3-(6-(piperidin-4-yloxy)pyridin-3-yl)-2-thioxoimidazolidin-1-yl)benzonitrile hydrochloride] returned a melting point of 216.5 °C.
